How the values were obtained:
aPKC = assay: insulin-stimulated tissue aPKC activity in wild type mice after a single ICAPP injection; format: in vivo, mouse; settings: 1.5 mg/kg ICAPP s.c., 2-30 hours, insulin 1 U/kg
Method: aPKCι Assays: aPKC enzyme activity was measured as previously described (Standaert et al., J. Biol. Chem. 279:24929-24934, 2004; Sajan et al., J. Lipid Res. 50:1133-1145, 2009; Sajan et al., Diabetologia 52:1197-1207, 2009; Farese et al., J. Clin. Invest. 117:2289-2301, 2007). In brief, aPKCs were immunoprecipitated from cell lysates with a rabbit polyclonal antiserum (Santa Cruz Biotechnologies) that recognizes the C-termini of both PKC-ζ and PKC-λ/ι (whereas mouse (Bandyopadhyay et al., Endocrinol. 141:4120-4127, 2000) and human (present findings) muscle contains mainly PKC-λ and PKC-ι, respectively, and little PKC-ζ, mouse and human liver contains substantial amounts of both PKC-ζ and PKC-λ (Sajan et al., J. Lipid Res. 50:1133-1145, 2009; Matsumoto et al., J. Clin. Invest. 112:935-944, 2003; and present results). Immunoprecipitates were collected on Sepharose-AG beads (Santa Cruz Biotechnologies), and beads were suspended and incubated for 8 minutes at 30° C. in 100 buffer containing 50 mM Tris/HCl (pH, 7.5), 100 μM Na3VO4, 100 μM Na4P2O7, 1 mM NaF, 100 μM PMSF, 4 μg phosphatidylserine (Sigma-Aldrich), 50 μM [γ-^32P]ATP (NEN Life Science Products/Perkin-Elmer, Waltham, Mass.), 5 mM MgCl2, and, as substrate, 40 μM serine analogue of the PKC-ε pseudosubstrate (BioSource/Invitrogen, Carlsbad, Calif.). After incubation, ^32P-labeled substrate was trapped on P-81 filter paper and counted. This assay reflects the specific activity of a constant amount of aPKC (even in Het-MλKO mice) that is immunoprecipitated by supplier-prescribed amounts of antiserum (Farese et al., J. Clin. Invest. 117:2289-2301, 2007; Beeson et al., Diabetes 52:1926-1934, 2003).
Wild type mice were treated with 1.5 mg/kg ICAPP subcutaneously and after 2-30 hours, the mice were treated with 1 U/kg insulin 15 minutes before euthanasia. aPKC activity was determined as described in Example 1.

recombinant PKC-ι = target: T1, recombinant PKC-ι (Homo sapiens, UniProt P41743); assay: recombinant PKC-ι activity assay (PIP3-activated); format: biochemical
T1 construct: purchased Biovision, Mountain View, Calif
T1 sequence (P41743 1-596): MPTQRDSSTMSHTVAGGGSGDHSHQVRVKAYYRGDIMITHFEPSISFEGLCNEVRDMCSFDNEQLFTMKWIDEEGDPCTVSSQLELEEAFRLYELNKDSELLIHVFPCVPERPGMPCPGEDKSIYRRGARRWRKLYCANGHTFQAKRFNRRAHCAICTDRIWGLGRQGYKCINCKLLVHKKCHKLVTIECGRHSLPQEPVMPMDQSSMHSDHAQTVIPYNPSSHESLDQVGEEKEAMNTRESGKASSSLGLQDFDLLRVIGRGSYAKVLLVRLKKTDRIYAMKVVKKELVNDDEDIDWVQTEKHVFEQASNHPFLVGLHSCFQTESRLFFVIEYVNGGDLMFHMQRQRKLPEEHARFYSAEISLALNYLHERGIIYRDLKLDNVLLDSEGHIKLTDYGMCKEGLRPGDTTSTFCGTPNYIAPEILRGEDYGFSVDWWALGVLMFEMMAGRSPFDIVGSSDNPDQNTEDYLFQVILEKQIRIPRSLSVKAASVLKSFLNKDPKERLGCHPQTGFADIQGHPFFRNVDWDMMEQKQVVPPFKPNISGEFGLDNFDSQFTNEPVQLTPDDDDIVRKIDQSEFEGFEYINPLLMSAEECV
Method: aPKCι Assays: aPKC enzyme activity was measured as previously described (Standaert et al., J. Biol. Chem. 279:24929-24934, 2004; Sajan et al., J. Lipid Res. 50:1133-1145, 2009; Sajan et al., Diabetologia 52:1197-1207, 2009; Farese et al., J. Clin. Invest. 117:2289-2301, 2007). […] After incubation, ^32P-labeled substrate was trapped on P-81 filter paper and counted. […]

FoxO1 = assay: serine-256 phosphorylation of FoxO1 in human hepatocytes; format: cell-based; settings: inhibitor alone or with insulin
Method: After thawing, the hepatocytes were distributed (approximately 10^6 cells per 100 mm plate) and incubated approximately 16 hours overnight in Dulbecco's minimal essential medium containing 5% fetal calf serum, 100 units/ml sodium-penicillin, 100 μg/ml streptomycin-sulfate, 1 μM insulin and 2 μM dexamethasone. After washing, cells were incubated first for 2 hours in William's E medium (Sigma-Aldrich, St. Louis, Mo., catalog no. W1878) containing GLUTAMAX™ (Gibco/Invitrogen, Carlsbad, Calif.), 100 units/ml sodium-penicillin, 100 μg/ml streptomycin-sulfate, 10 μM insulin, 100 nM dexamethasone, and then for 2 hours in William's E medium containing 100 units/ml sodium penicillin, 100 μg/ml streptomycin-sulfate, 100 nM dexamethasone, 0.25 mg/ml transferrin, 0.25 μg/ml sodium selenite and 10 μM insulin. Cells were then washed and incubated for 3 hours in the same medium, but lacking insulin. Where indicated, an aPKC inhibitor was then added and incubation was continued for 30 min, after which, cells were treated either for 15 min with or without 100 nM insulin for acute signaling studies, or for 6 hours, with or without 1 μM insulin for expression studies. After incubation, cells were sonicated in homogenizing buffer. […]

Structure (SMILES) | insulin-stimulated aPKC activity in adipose tissue (aPKC) | insulin-stimulated aPKC activity in liver (aPKC) | insulin-stimulated aPKC activity in muscle (aPKC) | IC50 (recombinant PKC-ι; 10 ng recombinant PKC-ι activated by 10 fM PIP3, in vitro) [nM] | FoxO1 phosphorylation (FoxO1) | inhibition of PIP3-activated recombinant PKC-ι (recombinant PKC-ι; in vitro)
NC(=O)c1ncn([C@@H]2C[C@H](COP(=O)(O)O)[C@@H](O)[C@H]2O)c1N [ICAPP, 1H-imidazole-4-carboxamide, 5-amino-1-[2,3-dihydroxy-4-[(phosphonooxy)methyl]cyclopentyl]-[1R-(1α,2β,3β,4α)]] | not in either muscle or adipose tissues | diminished | not in either muscle or adipose tissues | 10 to 100 | insulin-like, or enhanced insulin, effects | –
O=C([O-])CC([S][Au])C(=O)[O-] (stereo not shown) [ATM, aurothiomalate, reference compound] | – | – | – | – | insulin-like, or enhanced insulin, effects | did not inhibit
